Laboratory results from US10179125B2, “Substituted pyridines as bromodomain inhibitors” (Zenith Epigenetics Ltd., priority 2014, dated 2019).

What was measured:
[1] = molecular target: T1, Brd4 bromodomain 1 (BRD4(1)) (Homo sapiens, UniProt O60885); test: Inhibition of tetra-acetylated histone H4 binding to BET bromodomain (HTRF/FRET); settings: His-tagged bromodomain 200 nM, biotinylated tetra-acetylated histone H4 peptide, 2 h room temperature
T1 construct: made in house; host or cells: E. coli BL21(DE3)
Description: Proteins were cloned and overexpressed with a N-terminal 6×His tag, then purified by nickel affinity followed by size exclusion chromatography. Briefly, E. coli BL21(DE3) cells were transformed with a recombinant expression vector encoding N-terminally Nickel affinity tagged bromodomains from Brd2, Brd3, Brd4. Cell cultures were incubated at 37° C. with shaking to the appropriate density and induced overnight with IPTG. The supernatant of lysed cells was loaded onto Ni-IDA column for purification, Eluted protein was pooled, concentrated and further purified by size exclusion chromatography. Fractions representing monomeric protein were pooled, concentrated, aliquoted, and frozen at −80° C. for use in subsequent experiments.
Binding of tetra-acetylated histone H4 and BET bromodomains was confirmed by a Homogenous Time Resolved Fluorescence Resonance Energy Transfer (HTRF®) method, N-terminally His-tagged bromodomains (200 nM) and biotinylated tetra-acetylated histone H4 peptide (25-50 nM, Millipore) were incubated in the presence of Europium Cryptate-labeled streptavidin (Cisbio Cat, #610SAKLB) and XL665-labeled monoclonal anti-His antibody (Cisbio Cat.1461HISXLB) in a white 96 well microtiter plate (Greiner). For inhibition assays, serially diluted test compound was added to these reactions in a 0.2% final concentration of DMSO. Duplicate wells were used for each concentration tested. Final buffer concentrations were 30 mM HEPES pH 7.4, 30 mM NaCl, 0.3 mM CHAPS, 20 mM phosphate pH 7.0, 320 mM KF, 0.08% BSA. After a 2 h incubation at room temperature, fluorescence was measured at 665 and 620 nm with a SynergyH4 plate reader (Biotek). The binding inhibitory activity was shown by a decrease in […] relative to 620 nm fluorescence. IC50 values were determined from a dose response curve.

cMYC = test: Inhibition of cMYC expression in MV4-11 cells (real-time PCR); type: cell-based, Human; settings: 3 h, cMYC mRNA; for IC50: Homo sapiens, read-out: c-myc activity
Description: MV4-11 cells (CRL-9591) were plated at a density of 2.5×10^4 cells per well in 96 well U-bottom plates and treated with increasing concentrations of test compound or DMSO (0.1%) in IMDM media containing 10% FBS and penicillin/streptomycin, and incubated for 3 h at 37° C. Triplicate wells were used for each concentration. Cells were pelleted by centrifugation and harvested using the mRNA Catcher PLUS kit according to manufacturer's instructions. The eluted mRNA isolated was then used in a one-step quantitative real-time PCR reaction, using components of the RNA UltraSense™ One-Step Kit (Life Technologies) together with Applied Biosystems TaqMan® primer-probes for cMYC and Cyclophilin, Real-time PCR plates were run on a ViiA™7 real time PCR machine (Applied Biosystems), data was analyzed, normalizing the Ct values for cMYC to an internal control, prior to determining the fold expression of each sample, relative to the control.

Human AML MV-4-11 cells = test: Inhibition of cell proliferation in MV4-11 cells (CellTiter Aqueous One); type: cell-based; settings: 72 h; for IC50: Homo sapiens
Description: MV4-11 cells (CRL-9591) were plated at a density of 5×10^4 cells per well in 96 well flat bottom plates and treated with increasing concentrations of test compound or DMSO (0.1%) in IMDM media containing 10% FBS and penicillin/streptomycin. Triplicate wells were used for each concentration and a well containing only media was used as a control. Plates were incubated at 37° C., 5% CO2 for 72 h before adding 20 μL of the CellTiter Aqueous One Solution (Promega) to each well and incubated at 37° C., 5% CO2 for an additional 3-4 h. The absorbance was read at 490 nm in a spectrophotometer and the percentage of cell titer relative to DMSO-treated cells was calculated after correcting for background by subtracting the blank well's signal. IC50 values were calculated using the GraphPad Prism software.

hIL-6 = test: Inhibition of hIL-6 mRNA transcription in LPS-stimulated U937 cells; type: cell-based, Human; settings: 1 h pretreatment, LPS 3 h; for IC50: Homo sapiens, U-937, PMA-differentiated U937 cells, read-out: IL-6 activity
Description: Human leukemic monocyte lymphoma U937 cells (CRL-1593.2) were plated at a density of 3.2×10^4 cells per well in a 96-well plate in 100 μL RPMI-1640 containing 10% FBS and penicillin/streptomycin, and differentiated into macrophages for 3 days in 60 ng/mL PMA ([…]) at 37° C. in 5% CO2 prior to the addition of compound. The cells were pretreated for 1 h with increasing concentrations of test compound in 0.1% DMSO prior to stimulation with 1 ug/mL lipopolysaccharide from Escherichia coli. Triplicate wells were used for each concentration. The cells were incubated at 37° C., 5% CO2 for 3 h before the cells were harvested. At time of harvest, media was removed and cells were rinsed in 200 μL PBS. Cells were harvested using the mRNA Catcher PLUS kit according to manufacturer's instructions. The eluted mRNA was then used in a one-step quantitative real-time PCR reaction using components of the RNA UltraSense™ One-Step Kit (Life Technologies) together with Applied Biosystems TaqMan® primer-probes for hIL-6 and Cyclophilin. Real-time PCR plates were run on a ViiA™7 real time PCR machine (Applied Biosystems), data was analyzed, normalizing the Ct values for hIL-6 to an internal control, prior to determining the fold expression of each sample, relative to the control.

`CNc1ncc(-c2c(C)noc2C)cc1NCc1ccc(C#N)s1` [Example 54, 5-(((5-(3,5-dimethylisoxazol-4-yl)-2-(methylamino)pyridin-3-yl)amino)methyl)thiophene-2-carbonitrile] was tested, and the IC50 [1] was no more than 300 nM, the IC50 (cMYC) was 300 to 3000 nM and the IC50 (Human AML MV-4-11 cells) was 3000 to 30000 nM. For the same molecule, the IC50 (hIL-6) was 300 to 3000 nM.

`CNc1ncc(-c2c(C)noc2C)cc1Nc1cc(C#N)ccc1C` [Example 64, 3-((5-(3,5-dimethylisoxazol-4-yl)-2-(methylamino)pyridin-3-yl)amino)-4-methylbenzonitrile] showed an IC50 [1] of 300 to 3000 nM, an IC50 (cMYC) of 300 to 3000 nM and an IC50 (Human AML MV-4-11 cells) of 3000 to 30000 nM. For the same molecule, the IC50 (hIL-6) was 300 to 3000 nM.

`COc1ncc(-c2c(C)noc2C)cc1Nc1cc(C#N)ccc1C` [Example 61, 3-((5-(3,5-dimethylisoxazol-4-yl)-2-methoxypyridin-3-yl)amino)-4-methylbenzonitrile] was tested, and the IC50 [1] was no more than 300 nM, the c-myc activity (cMYC) was “Not Active” and the “Cell Proliferation activity” value (Human AML MV-4-11 cells) was “Not Active”. It also gave an IC50 (hIL-6) of 3000 to 30000 nM.

`COc1ncc(-c2c(C)noc2C)cc1NCc1ccc2ccccc2c1` [Example 44, 5-(3,5-dimethylisoxazol-4-yl)-2-methoxy-N-(naphthalen-2-ylmethyl)pyridin-3-amine] showed an IC50 [1] of no more than 300 nM, an IC50 (cMYC) of 3000 to 30000 nM and an IC50 (Human AML MV-4-11 cells) of 3000 to 30000 nM. For the same molecule, the IC50 (hIL-6) was 3000 to 30000 nM.

Work on `COc1ncc(-c2c(C)noc2C)cc1NC(C)c1ccc(Cl)cc1` (stereo not shown) [Example 22, N-(1-(4-chlorophenyl)ethyl)-5-(3,5-dimethylisoxazol-4-yl)-2-methoxypyridin-3-amine] yielded an IC50 [1] of 300 to 3000 nM, an IC50 (cMYC) of 3000 to 30000 nM and an IC50 (Human AML MV-4-11 cells) of 3000 to 30000 nM.

In the case of `COc1ncc(-c2c(C)noc2C)cc1OCc1ccsc1` [Example 37, 4-(6-methoxy-5-(thiophen-3-ylmethoxy)pyridin-3-yl)-3,5-dimethylisoxazole], the IC50 [1] is reported as no more than 300 nM, the IC50 (cMYC) is reported as 300 to 3000 nM and the IC50 (Human AML MV-4-11 cells) is reported as 300 to 3000 nM. For the same molecule, the IC50 (hIL-6) was 300 to 3000 nM.

With `Cc1noc(C)c1-c1cnc(Oc2ccccc2)c(NCc2ccccc2)c1` [Example 38, N-benzyl-5-(3,5-dimethylisoxazol-4-yl)-2-phenoxypyridin-3-amine] the IC50 [1] was no more than 300 nM, the IC50 (cMYC) was 300 to 3000 nM and the IC50 (Human AML MV-4-11 cells) was 3000 to 30000 nM. The IC50 (hIL-6) was 300 to 3000 nM.

`COc1ncc(-c2c(C)noc2C)cc1NCc1nccs1` [Example 41, 5-(3,5-dimethylisoxazol-4-yl)-2-methoxy-N-(thiazol-2-ylmethyl)pyridin-3-amine] was tested, and the IC50 [1] was no more than 300 nM, the IC50 (cMYC) was no more than 300 nM and the IC50 (Human AML MV-4-11 cells) was 300 to 3000 nM. It also gave an IC50 (hIL-6) of 300 to 3000 nM.

`COc1ncc(-c2c(C)noc2C)cc1Nc1ccc(C#N)cc1` [Example 35, 4-((5-(3,5-dimethylisoxazol-4-yl)-2-methoxypyridin-3-yl)amino)benzonitrile] gave an IC50 [1] of no more than 300 nM, an IC50 (cMYC) of 3000 to 30000 nM and an IC50 (Human AML MV-4-11 cells) of 3000 to 30000 nM. It also gave an IC50 (hIL-6) of 300 to 3000 nM.

Work on `COc1ncc(-c2c(C)noc2C)cc1NCc1nc2ccccc2o1` [Example 46, N-(benzo[d]oxazol-2-ylmethyl)-5-(3,5-dimethylisoxazol-4-yl)-2-methoxypyridin-3-amine] yielded an IC50 [1] of no more than 300 nM, an IC50 (cMYC) of 300 to 3000 nM and an IC50 (Human AML MV-4-11 cells) of 3000 to 30000 nM. The IC50 (hIL-6) was 300 to 3000 nM.

`COc1ncc(-c2c(C)noc2C)cc1NCc1ccc(C#N)c(F)c1` [Example 29, 4-(((5-(3,5-dimethylisoxazol-4-yl)-2-methoxypyridin-3-yl)amino)methyl)-2-fluorobenzonitrile] was tested, and the IC50 [1] was no more than 300 nM, the IC50 (cMYC) was 300 to 3000 nM and the IC50 (Human AML MV-4-11 cells) was 300 to 3000 nM. The IC50 (hIL-6) was no more than 300 nM.

For `COc1ncc(-c2c(C)noc2C)cc1NCc1ccc2ccccc2n1` [Example 47, 5-(3,5-dimethylisoxazol-4-yl)-2-methoxy-N-(quinolin-2-ylmethyl)pyridin-3-amine], the IC50 [1] was no more than 300 nM, the c-myc activity (cMYC) was “Not Active” and the “Cell Proliferation activity” value (Human AML MV-4-11 cells) was “Not Active”. The IL-6 activity (hIL-6; PMA-differentiated U937 cells) was “Not Active”.

Work on `COc1ncc(-c2c(C)noc2C)cc1Nc1cccnc1C` [Example 59, 5-(3,5-dimethylisoxazol-4-yl)-2-methoxy-N-(2-methylpyridin-3-yl)pyridin-3-amine] yielded an IC50 [1] of no more than 300 nM, an IC50 (cMYC) of 300 to 3000 nM and an IC50 (Human AML MV-4-11 cells) of 3000 to 30000 nM. It also gave an IC50 (hIL-6) of 300 to 3000 nM.

Molecule `COc1ncc(-c2c(C)noc2C)cc1-c1c(C)noc1C` [Example 34, 4,4′-(2-methoxypyridine-3,5-diyl)bis(3,5-dimethylisoxazole)] has an IC50 [1] of no more than 300 nM, an IC50 (cMYC) of 3000 to 30000 nM and an IC50 (hIL-6) of 3000 to 30000 nM.

Molecule `Cc1noc(C)c1-c1cnc(OCc2ccccc2)c(NCc2ccccc2)c1` [Example 25, N-benzyl-2-(benzyloxy)-5-(3,5-dimethylisoxazol-4-yl)pyridin-3-amine] has an IC50 [1] of 300 to 3000 nM and an IC50 (Human AML MV-4-11 cells) of 3000 to 30000 nM.

In the case of `CNc1ncc(-c2c(C)noc2C)cc1Nc1cccnc1C` [Example 69, 5-(3,5-Dimethylisoxazol-4-yl)-N2-methyl-N3-(2-methylpyridin-3-yl)pyridine-2,3-diamine], the IC50 [1] is reported as 300 to 3000 nM.

In the case of `COc1ncc(-c2c(C)noc2C)cc1Nc1cccc(C)c1` [Example 7, 5-(3,5-dimethylisoxazol-4-yl)-2-methoxy-N-(m-tolyl)pyridin-3-amine], the IC50 [1] is reported as no more than 300 nM, the IC50 (Human AML MV-4-11 cells) is reported as 3000 to 30000 nM and the IC50 (hIL-6) is reported as 300 to 3000 nM.

Molecule `COc1cccc(Nc2cc(-c3c(C)noc3C)cnc2OC)c1` [Example 13, 5-(3,5-dimethylisoxazol-4-yl)-2-methoxy-N-(3-methoxyphenyl)pyridin-3-amine] has an IC50 [1] of no more than 300 nM, an IC50 (Human AML MV-4-11 cells) of 300 to 3000 nM and an IC50 (hIL-6) of 300 to 3000 nM.

`COc1ncc(-c2c(C)noc2C)cc1NCc1ccc(Br)cc1` [Example 23, N-(4-bromobenzyl)-5-(3,5-dimethylisoxazol-4-yl)-2-methoxypyridin-3-amine] gave an IC50 [1] of 300 to 3000 nM, an IC50 (cMYC) of 3000 to 30000 nM and an IC50 (Human AML MV-4-11 cells) of 3000 to 30000 nM.

In the case of `COc1ncc(-c2c(C)noc2C)cc1NCc1ncccn1` [Example 48, 5-(3,5-dimethylisoxazol-4-yl)-2-methoxy-N-(pyrimidin-2-ylmethyl)pyridin-3-amine], the IC50 [1] is reported as no more than 300 nM, the IC50 (Human AML MV-4-11 cells) is reported as 3000 to 30000 nM and the IC50 (hIL-6) is reported as 300 to 3000 nM.

For `COc1ncc(-c2c(C)noc2C)cc1NCc1ncccc1Cl` [Example 49, N-((3-chloropyridin-2-yl)methyl)-5-(3,5-dimethylisoxazol-4-yl)-2-methoxypyridin-3-amine], the IC50 [1] was no more than 300 nM and the “Cell Proliferation activity” value (Human AML MV-4-11 cells) was “Not Active”.

With `COc1ncc(-c2c(C)noc2C)cc1Oc1cccnc1` [Example 15, 4-(6-methoxy-5-(pyridin-3-yloxy)pyridin-3-yl)-3,5-dimethylisoxazole] the IC50 [1] was 3000 to 30000 nM.

With `COc1ncc(-c2c(C)noc2C)cc1NCc1ccc(C(F)(F)F)cc1` [Example 16, 5-(3,5-dimethylisoxazol-4-yl)-2-methoxy-N-(4-(trifluoromethyl)benzyl)pyridin-3-amine] the IC50 [1] was 300 to 3000 nM.
